In patent US6737383B1, “Herbicidal oxadiazolidines” (priority 1999, dated 2004):

How the values were obtained:
[1] = system: soybean; assay: Test B pre/postemergence soybean; format: in vivo, Glycine max; conditions: for Plant response rating, Soybean: Postemergence
Outline: (§1)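 Test chemicals in a non-phytotoxic solvent mixture with surfactant were sprayed preemergence onto planted seeds and postemergence onto plants 2 to 18 cm tall (1- to 4-leaf stage). After twelve to sixteen days in a greenhouse, injury was visually rated against untreated controls from 0 (no effect) to 10 (complete control).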

[2] = system: crabgrass; assay: Test B pre/postemergence crabgrass; format: in vivo, Digitaria sanguinalis
Outline: as §1

[3] = system: bamyardgrass; assay: Test B flood test barnyardgrass; format: in vivo, Echinochloa crus-galli
Outline: (§2)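 Each value is a visual injury score relative to controls, with 10 meaning complete control and 0 no effect. Evaluation took place twelve to sixteen days after the 2-leaf-stage plants were treated and kept in the greenhouse.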

[4] = system: surinam grass; assay: Test B pre/postemergence surinam grass; format: in vivo, Brachiaria decumbens
Outline: as §1

[5] = system: cocklebur; assay: Test B pre/postemergence cocklebur; format: in vivo, Xanthium strumarium
Outline: as §1

[6] = system: purple nutsedge; assay: Test B pre/postemergence purple nutsedge; format: in vivo, Cyperus rotundus
Outline: as §1

[7] = system: smallflower flatsedge; assay: Test B flood test smallflower flatsedge; format: in vivo, Cyperus difformis
Outline: as §2

[8] = system: morningglory; assay: Test B pre/postemergence morningglory; format: in vivo, Ipomoea hederacea
Outline: as §1

[9] = system: duck salad; assay: Test B flood test duck salad; format: in vivo, Heteranthera limosa
Outline: as §2

[10] = system: pigweed; assay: Test B pre/postemergence pigweed; format: in vivo, Amaranthus retroflexus
Outline: as §1

[11] = system: rice; assay: Test B flood test rice; format: in vivo, Oryza sativa
Outline: as §2

[12] = system: sugar beet; assay: Test B pre/postemergence sugar beet; format: in vivo, Beta vulgaris
Outline: as §1

[13] = system: corn; assay: Test B pre/postemergence corn; format: in vivo, Zea mays
Outline: as §1

[14] = system: wild oat; assay: Test B pre/postemergence wild oat; format: in vivo, Avena fatua
Outline: as §1

[15] = system: rape; assay: Test B pre/postemergence rape; format: in vivo, Brassica napus
Outline: as §1

[16] = system: giant foxtail; assay: Test B pre/postemergence giant foxtail; format: in vivo, Setaria faberii
Outline: as §1

[17] = Preemergence, Rate 62 g/ha, scale of 0 to 10 where 0 is no effect and 10 is complete control
[18] = Preemergence, Rate 250 g/ha, scale of 0 to 10 where 0 is no effect and 10 is complete control
[19] = Preemergence, Rate 500 g/ha, scale of 0 to 10 where 0 is no effect and 10 is complete control
[20] = Postemergence, Rate 125 g/ha, scale 0 to 10, 0 is no effect, 10 is complete control
[21] = Rate 62 g/ha, Postemergence, scale 0 to 10 (0 no effect, 10 complete control)
[22] = Rate 250 g/ha, Postemergence, scale of 0 to 10 where 0 is no effect and 10 is complete control
[23] = Rate 500 g/ha, Postemergence, scale 0 to 10, 0 no effect, 10 complete control
[24] = Rate 62 g/ha, headed Pre-emergence (flood test species), scale 0 to 10 (0 no effect, 10 complete control)
[25] = Rate 125 g/ha, Pre-emergence, flood test species, scale 0 to 10 where 0 is no effect and 10 is complete control
[26] = Rate 250 g/ha, Pre-emergence, flood-test species, scale 0 to 10, 0 is no effect, 10 is complete control
[27] = Rate 500 g/ha, Pre-emergence, flood test species, scale 0 to 10 (0 no effect, 10 complete control)

Structure (SMILES): CC(C)N(C(=O)n1oc(=O)n(C2CC3CCC2C3)c1=O)c1ccccc1 (centres unmarked) [Compound 328]
- Plant response rating, Soybean ([1]; Rate 125 g/ha, scale 0 to 10, 0 is no effect, 10 is complete control): 2
- Soybean plant response rating [1, 17]: 0
- Soybean plant response rating (0 to 10 scale) ([1]; Preemergence, Rate 125 g/ha): 0
- Soybean plant response rating [1, 18]: 0
- Soybean plant response rating [1, 19]: 0
- Plant response rating, Soybean ([1]; Rate 250 g/ha, scale of 0 to 10 where 0 is no effect and 10 is complete control): 5
- Plant response rating, Soybean ([1]; Rate 500 g/ha, scale 0 to 10, 0 no effect, 10 complete control): 6
- Plant response rating, Crabgrass [2, 20]: 0
- Crabgrass plant response rating [2, 17]: 0
- Crabgrass plant response rating (0 to 10 scale) ([2]; Preemergence, Rate 125 g/ha): 0
- Crabgrass plant response rating [2, 18]: 3
- Crabgrass plant response rating [2, 19]: 5
- Crabgrass plant response rating [2, 21]: 0
- Plant response rating, Crabgrass [2, 22]: 0
- Plant response rating, Crabgrass [2, 23]: 2
- Barnyardgrass plant response rating [3, 24]: 0
- Barnyardgrass plant response rating [3, 25]: 0
- Barnyardgrass plant response rating [3, 26]: 0
- Barnyardgrass plant response rating [3, 27]: 0
- Plant response rating, B. signalgrass [4, 20]: 0
- B. signalgrass plant response rating [4, 17]: 0
- B. signalgrass plant response rating (0 to 10 scale, 0 is no effect, 10 is complete control) ([4]; Preemergence, Rate 125 g/ha): 0
- B. signalgrass plant response rating [4, 18]: 0
- B. signalgrass plant response rating [4, 19]: 5
- B. signalgrass plant response rating [4, 21]: 0
- Plant response rating, B. signalgrass [4, 22]: 0
- Plant response rating, B. signalgrass [4, 23]: 0
- Plant response rating, Cocklebur [5, 20]: 0
- Cocklebur plant response rating (0 to 10 scale) ([5]; Preemergence, Rate 125 g/ha): 0
- Cocklebur plant response rating [5, 18]: 0
- Cocklebur plant response rating [5, 19]: 0
- Cocklebur plant response rating [5, 21]: 0
- Plant response rating, Cocklebur [5, 22]: 0
- Plant response rating, Cocklebur [5, 23]: 0
- Plant response rating, Nutsedge [6, 20]: 0
- Nutsedge plant response rating [6, 17]: 0
- Nutsedge plant response rating (0 to 10 scale) ([6]; Preemergence, Rate 125 g/ha): 0
- Nutsedge plant response rating [6, 18]: 0
- Nutsedge plant response rating [6, 19]: 0
- Nutsedge plant response rating [6, 21]: 0
- Plant response rating, Nutsedge [6, 22]: 0
- Plant response rating, Nutsedge [6, 23]: 0
- S. Flatsedge plant response rating [7, 24]: 0
- S. Flatsedge plant response rating [7, 25]: 0
- S. Flatsedge plant response rating [7, 26]: 0
- S. Flatsedge plant response rating [7, 27]: 0
- Plant response rating, Morningglory [8, 20]: 8
- Morningglory plant response rating [8, 17]: 0
- Morningglory plant response rating (0 to 10 scale) ([8]; Preemergence, Rate 125 g/ha): 0
- Morningglory plant response rating [8, 18]: 0
- Morningglory plant response rating [8, 19]: 4
- Morningglory plant response rating [8, 21]: 7
- Plant response rating, Morningglory [8, 22]: 10
- Plant response rating, Morningglory [8, 23]: 10
- Ducksalad plant response rating [9, 24]: 0
- Ducksalad plant response rating [9, 25]: 0
- Ducksalad plant response rating [9, 26]: 0
- Ducksalad plant response rating [9, 27]: 0
- Plant response rating, Redroot pigweed [10, 20]: 3
- Redroot pigweed plant response rating [10, 17]: 0
- Redroot pigweed plant response rating (0 to 10 scale) ([10]; Preemergence, Rate 125 g/ha): 0
- Redroot pigweed plant response rating [10, 18]: 0
- Redroot pigweed plant response rating [10, 19]: 4
- Redroot pigweed plant response rating [10, 21]: 2
- Plant response rating, Redroot pigweed [10, 22]: 3
- Plant response rating, Redroot pigweed [10, 23]: 5
- Rice plant response rating [11, 24]: 0
- Rice plant response rating [11, 25]: 0
- Rice plant response rating [11, 26]: 0
- Rice plant response rating [11, 27]: 7
- Plant response rating, Sugarbeets [12, 20]: 0
- Sugarbeets plant response rating [12, 17]: 0
- Sugarbeets plant response rating (0 to 10 scale) ([12]; Preemergence, Rate 125 g/ha): 0
- Sugarbeets plant response rating [12, 18]: 0
- Sugarbeets plant response rating [12, 19]: 0
- Sugarbeets plant response rating [12, 21]: 0
- Plant response rating, Sugarbeets [12, 22]: 0
- Plant response rating, Sugarbeets [12, 23]: 0
- Plant response rating, Corn [13, 20]: 0
- Corn plant response rating [13, 17]: 0
- Corn plant response rating (0 to 10 scale) ([13]; Preemergence, Rate 125 g/ha): 0
- Corn plant response rating [13, 18]: 0
- Corn plant response rating [13, 19]: 0
- Corn plant response rating [13, 21]: 0
- Plant response rating, Corn [13, 22]: 0
- Plant response rating, Corn [13, 23]: 0
- Plant response rating, Wild oats [14, 20]: 0
- Wild oats plant response rating [14, 17]: 0
- Wild oats plant response rating (0 to 10 scale) ([14]; Preemergence, Rate 125 g/ha): 0
- Wild oats plant response rating [14, 18]: 0
- Wild oats plant response rating [14, 19]: 1
- Wild oats plant response rating [14, 21]: 0
- Plant response rating, Wild oats [14, 22]: 0
- Plant response rating, Wild oats [14, 23]: 0
- Plant response rating, Rape [15, 20]: 0
- Rape plant response rating [15, 17]: 0
- Rape plant response rating (0 to 10 scale) ([15]; Preemergence, Rate 125 g/ha): 0
- Rape plant response rating [15, 18]: 0
- Rape plant response rating [15, 19]: 0
- Rape plant response rating [15, 21]: 0
- Plant response rating, Rape [15, 22]: 0
- Plant response rating, Rape [15, 23]: 0
- Plant response rating, Giant foxtail [16, 20]: 0
- Giant foxtail plant response rating [16, 17]: 0
- Giant foxtail plant response rating (0 to 10 scale) ([16]; Preemergence, Rate 125 g/ha): 5
- Giant foxtail plant response rating [16, 18]: 8
- Giant foxtail plant response rating [16, 19]: 9
- Giant foxtail plant response rating [16, 21]: 0
- Plant response rating, Giant foxtail [16, 22]: 0
- Plant response rating, Giant foxtail [16, 23]: 1
